Reference: patent publication US10670605B2, “Cysteine reactive probes and uses thereof” (The Scripps Research Institute, priority 2015, dated 2020)
Values belong to the compound of their own block, whether it stands above or below them.

Columns and labels:
Test in all cases: Competitive isoTOP-ABPP, cell lysates;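 as to isoTOP-ABPP reactivity profile ratio, P09211 C48: Heavy/light ratio DMSO over fragment-treated so higher means more cysteine engagement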;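 as to isoTOP-ABPP reactivity profile ratio, Q15084 C190: Heavy/light ratio DMSO over fragment-treated so higher means more cysteine engagement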
Format in all cases: binding
PDIA6 C55 (Q15084) = target: T1, PDIA6 C55 (Q15084) (Homo sapiens, UniProt Q15084); settings: for isoTOP-ABPP ratio Q15084_C55: 500 μM, invitro
T1 sequence (Q15084 20-440): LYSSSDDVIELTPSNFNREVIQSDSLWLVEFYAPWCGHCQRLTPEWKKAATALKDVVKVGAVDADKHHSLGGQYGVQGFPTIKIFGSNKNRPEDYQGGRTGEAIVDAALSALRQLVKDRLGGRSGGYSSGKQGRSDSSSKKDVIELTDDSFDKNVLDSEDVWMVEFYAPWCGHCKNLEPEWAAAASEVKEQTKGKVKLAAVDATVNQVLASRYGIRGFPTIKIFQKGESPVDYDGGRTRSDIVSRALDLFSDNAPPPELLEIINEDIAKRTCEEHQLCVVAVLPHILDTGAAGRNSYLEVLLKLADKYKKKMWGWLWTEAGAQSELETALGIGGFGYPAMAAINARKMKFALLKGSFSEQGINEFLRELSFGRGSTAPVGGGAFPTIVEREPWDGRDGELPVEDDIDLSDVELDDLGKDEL

PDIA6 C190 (Q15084) = target: T2, PDIA6 C190 (Q15084) (Homo sapiens, UniProt Q15084); settings: for isoTOP-ABPP ratio, Q15084_C190: 500 μM, invitro;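 as to isoTOP-ABPP reactivity profile ratio, Q15084 C190: Heavy/light ratio DMSO over fragment-treated so higher means more cysteine engagement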
T2 sequence (Q15084 20-440): T1 sequence (Q15084 20-440)

SMARCC2 C145 (Q8TAQ2) = SMARCC2 C145 (Q8TAQ2) (Homo sapiens, UniProt Q8TAQ2)
SMARCC2 C145 (Q8TAQ2), sequence (Q8TAQ2 whole entry): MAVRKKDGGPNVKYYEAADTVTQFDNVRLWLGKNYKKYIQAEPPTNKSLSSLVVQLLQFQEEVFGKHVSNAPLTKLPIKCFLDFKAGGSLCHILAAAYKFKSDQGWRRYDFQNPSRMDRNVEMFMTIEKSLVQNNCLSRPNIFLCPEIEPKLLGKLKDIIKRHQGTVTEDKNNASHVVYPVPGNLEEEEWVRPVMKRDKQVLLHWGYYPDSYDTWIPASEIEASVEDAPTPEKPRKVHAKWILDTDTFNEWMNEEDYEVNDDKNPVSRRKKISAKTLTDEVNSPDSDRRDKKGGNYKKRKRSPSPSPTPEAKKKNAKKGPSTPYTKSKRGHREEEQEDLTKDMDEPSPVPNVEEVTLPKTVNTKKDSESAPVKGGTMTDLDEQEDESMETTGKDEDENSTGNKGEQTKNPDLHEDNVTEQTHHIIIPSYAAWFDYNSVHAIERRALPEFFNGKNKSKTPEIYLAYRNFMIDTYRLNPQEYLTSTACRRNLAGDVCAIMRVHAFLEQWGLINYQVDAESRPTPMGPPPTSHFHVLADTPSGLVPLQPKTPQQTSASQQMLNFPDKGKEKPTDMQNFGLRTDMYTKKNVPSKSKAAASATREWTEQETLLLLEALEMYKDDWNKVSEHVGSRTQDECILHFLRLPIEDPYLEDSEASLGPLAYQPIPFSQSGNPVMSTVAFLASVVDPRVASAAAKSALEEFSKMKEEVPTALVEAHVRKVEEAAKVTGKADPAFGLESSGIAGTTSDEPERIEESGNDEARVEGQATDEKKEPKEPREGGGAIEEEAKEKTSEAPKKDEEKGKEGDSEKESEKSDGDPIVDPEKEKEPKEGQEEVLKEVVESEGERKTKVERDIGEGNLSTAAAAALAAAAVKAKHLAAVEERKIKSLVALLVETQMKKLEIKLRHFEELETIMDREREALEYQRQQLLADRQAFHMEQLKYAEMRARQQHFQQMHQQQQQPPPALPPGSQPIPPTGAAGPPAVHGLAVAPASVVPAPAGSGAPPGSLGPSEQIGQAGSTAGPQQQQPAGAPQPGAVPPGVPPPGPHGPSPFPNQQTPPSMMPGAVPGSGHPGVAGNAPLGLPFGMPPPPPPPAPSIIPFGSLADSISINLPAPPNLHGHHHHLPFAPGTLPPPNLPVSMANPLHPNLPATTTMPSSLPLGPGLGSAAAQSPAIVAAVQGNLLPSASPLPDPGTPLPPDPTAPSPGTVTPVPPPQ

XPO1 C528 (O14980) = XPO1 C528 (O14980) (Homo sapiens, UniProt O14980); settings: for isoTOP-ABPP ratio O14980_C528: 500 μM, invitro
XPO1 C528 (O14980), sequence (O14980 whole entry, the tested form may be a part): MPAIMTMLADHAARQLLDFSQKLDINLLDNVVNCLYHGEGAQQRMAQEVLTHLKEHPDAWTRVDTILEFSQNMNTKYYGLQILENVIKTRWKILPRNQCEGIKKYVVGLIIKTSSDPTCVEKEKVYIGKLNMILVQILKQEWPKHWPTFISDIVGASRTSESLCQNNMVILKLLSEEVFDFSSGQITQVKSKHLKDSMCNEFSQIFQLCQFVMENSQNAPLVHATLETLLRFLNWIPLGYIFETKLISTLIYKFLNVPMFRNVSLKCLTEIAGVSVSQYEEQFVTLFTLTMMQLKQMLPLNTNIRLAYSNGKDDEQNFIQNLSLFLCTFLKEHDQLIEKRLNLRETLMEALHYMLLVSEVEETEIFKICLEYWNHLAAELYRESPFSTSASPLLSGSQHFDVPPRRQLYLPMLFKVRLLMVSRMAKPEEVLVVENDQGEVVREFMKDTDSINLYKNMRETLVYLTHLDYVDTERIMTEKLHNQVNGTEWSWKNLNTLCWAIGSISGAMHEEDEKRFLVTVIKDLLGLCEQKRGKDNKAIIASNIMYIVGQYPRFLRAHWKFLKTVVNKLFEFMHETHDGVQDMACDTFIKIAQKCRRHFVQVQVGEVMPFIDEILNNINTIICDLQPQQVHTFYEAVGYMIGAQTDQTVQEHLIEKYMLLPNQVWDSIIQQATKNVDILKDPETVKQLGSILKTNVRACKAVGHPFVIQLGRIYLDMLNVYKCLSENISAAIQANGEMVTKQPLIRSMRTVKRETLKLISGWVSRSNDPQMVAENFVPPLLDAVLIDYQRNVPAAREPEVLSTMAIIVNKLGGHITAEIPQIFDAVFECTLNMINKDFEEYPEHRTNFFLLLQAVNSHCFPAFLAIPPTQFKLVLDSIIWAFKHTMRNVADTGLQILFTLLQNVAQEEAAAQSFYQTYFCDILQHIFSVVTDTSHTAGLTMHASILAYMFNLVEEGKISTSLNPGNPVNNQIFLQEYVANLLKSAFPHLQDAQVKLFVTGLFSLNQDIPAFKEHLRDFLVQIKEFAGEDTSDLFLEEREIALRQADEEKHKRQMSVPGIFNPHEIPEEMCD

GSTP1 C48 (P09211) = GSTP1 C48 (P09211) (Homo sapiens, UniProt P09211); settings: for isoTOP-ABPP reactivity ratio, P09211_C48 / isoTOP-ABPP reactivity profile ratio, P09211_C48: 500 μm; for isoTOP-ABPP ratio, P09211_C48: 500 μM, invitro;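 as to isoTOP-ABPP reactivity profile ratio, P09211 C48: Heavy/light ratio DMSO over fragment-treated so higher means more cysteine engagement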
GSTP1 C48 (P09211), sequence (P09211 whole entry, the tested form may be a part): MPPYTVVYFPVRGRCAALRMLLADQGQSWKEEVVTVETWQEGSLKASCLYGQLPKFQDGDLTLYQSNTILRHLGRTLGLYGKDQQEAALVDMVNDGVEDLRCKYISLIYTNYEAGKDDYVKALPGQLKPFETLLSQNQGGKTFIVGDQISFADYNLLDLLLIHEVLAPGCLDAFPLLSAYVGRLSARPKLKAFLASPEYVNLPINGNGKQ

XPO1 C34 (O14980) = XPO1 C34 (O14980) (Homo sapiens, UniProt O14980); settings: for isoTOP-ABPP reactivity ratio, O14980_C34 / isoTOP-ABPP reactivity profile ratio, O14980_C34: 500 μm; for isoTOP-ABPP ratio, O14980_C34: 500 μM, invitro
XPO1 C34 (O14980), sequence (O14980 whole entry, one chain of several): as the sequence (O14980 whole entry, the tested form may be a part) above

ACAT1 C119 (P24752) = target: T3, ACAT1 C119 (P24752) (Homo sapiens, UniProt P24752); settings: for isoTOP-ABPP reactivity ratio, P24752_C119 / isoTOP-ABPP reactivity profile ratio, P24752_C119: 500 μm; for isoTOP-ABPP ratio P24752_C119: 500 μM, invitro
T3 sequence (P24752 34-427): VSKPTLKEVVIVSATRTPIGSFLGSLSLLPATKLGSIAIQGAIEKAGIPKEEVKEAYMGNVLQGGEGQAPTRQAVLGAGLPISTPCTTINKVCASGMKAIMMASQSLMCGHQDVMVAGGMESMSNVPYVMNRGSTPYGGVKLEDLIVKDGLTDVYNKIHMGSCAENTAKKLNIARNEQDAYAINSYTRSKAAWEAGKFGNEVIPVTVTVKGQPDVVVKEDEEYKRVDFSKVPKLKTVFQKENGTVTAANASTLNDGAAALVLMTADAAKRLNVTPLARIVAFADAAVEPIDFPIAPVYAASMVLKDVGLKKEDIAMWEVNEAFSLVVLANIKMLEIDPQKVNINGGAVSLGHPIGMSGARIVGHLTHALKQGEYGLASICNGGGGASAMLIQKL

ACAT1 C126 (P24752) = target: T4, ACAT1 C126 (P24752) (Homo sapiens, UniProt P24752)
T4 sequence (P24752 34-427): T3 sequence (P24752 34-427)

UBE2S C118 (Q16763) = target: T5, UBE2S C118 (Q16763) (Homo sapiens, UniProt Q16763); settings: 500 μm
T5 sequence (Q16763 1-222): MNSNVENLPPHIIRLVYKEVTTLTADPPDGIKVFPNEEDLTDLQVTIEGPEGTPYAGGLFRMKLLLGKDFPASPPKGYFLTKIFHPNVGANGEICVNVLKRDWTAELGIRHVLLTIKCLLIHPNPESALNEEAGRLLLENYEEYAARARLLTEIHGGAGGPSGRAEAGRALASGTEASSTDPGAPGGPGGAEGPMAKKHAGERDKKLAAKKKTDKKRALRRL

isoTOP-ABPP reactivity ratio, Q15084_C55 (PDIA6 C55 (Q15084); 500 μm, in-vitro_ramos_231): 0.9
isoTOP-ABPP reactivity ratio, Q15084_C190 (PDIA6 C190 (Q15084); 500 μm, in-vitro_ramos_231): 0.9
isoTOP-ABPP reactivity ratio, Q8TAQ2_C145 (SMARCC2 C145 (Q8TAQ2); 500 μm, in-vitro_ramos_231): 0.9
isoTOP-ABPP reactivity ratio, O14980_C528 (XPO1 C528 (O14980); 500 μm, in-vitro_ramos): 0.8
isoTOP-ABPP reactivity ratio, P09211_C48 (GSTP1 C48 (P09211); in-vitro_ramos): 1.3
isoTOP-ABPP reactivity ratio, P09211_C48 (GSTP1 C48 (P09211); in-vitro_ramos_231): 0.7
isoTOP-ABPP reactivity ratio, O14980_C34 (XPO1 C34 (O14980); in-vitro_ramos): 1.3
isoTOP-ABPP reactivity ratio, O14980_C34 (XPO1 C34 (O14980); in-vitro_ramos_231): 0.8
isoTOP-ABPP reactivity ratio, P24752_C119 (ACAT1 C119 (P24752); in-vitro_ramos): 1.0
isoTOP-ABPP reactivity ratio, P24752_C119 (ACAT1 C119 (P24752); in-vitro_ramos_231): 0.9
isoTOP-ABPP reactivity ratio, P24752_C126 (ACAT1 C126 (P24752); 500 μm, in-vitro_ramos): 10.4
Compound: O=C(CCl)Nc1ccccc1C1CCCCCC1 [compound 35]

isoTOP-ABPP ratio Q15084_C55 (PDIA6 C55 (Q15084); 231): 20.0
isoTOP-ABPP ratio Q15084_C55 (PDIA6 C55 (Q15084); ramos): 20.0
isoTOP-ABPP ratio, Q15084_C190 (PDIA6 C190 (Q15084); 231): 20.0
isoTOP-ABPP ratio, Q15084_C190 (PDIA6 C190 (Q15084); ramos): 20.0
isoTOP-ABPP ratio Q8TAQ2_C145 (SMARCC2 C145 (Q8TAQ2); 500 μM, invitro, 231): 20.0
isoTOP-ABPP ratio O14980_C528 (XPO1 C528 (O14980); 231): 1.0
isoTOP-ABPP ratio O14980_C528 (XPO1 C528 (O14980); ramos): 0.7
isoTOP-ABPP ratio, P09211_C48 (GSTP1 C48 (P09211); 231): 1.7
isoTOP-ABPP ratio, P09211_C48 (GSTP1 C48 (P09211); ramos): 1.1
isoTOP-ABPP ratio, O14980_C34 (XPO1 C34 (O14980); 231): 1.2
isoTOP-ABPP ratio, O14980_C34 (XPO1 C34 (O14980); ramos): 1.0
isoTOP-ABPP ratio P24752_C119 (ACAT1 C119 (P24752); 231): 1.2
isoTOP-ABPP ratio P24752_C119 (ACAT1 C119 (P24752); ramos): 0.9
isoTOP-ABPP ratio, P24752_C126 (ACAT1 C126 (P24752); 500 μM, invitro, 231): 1.5
Compound: Cn1cc(S(=O)(=O)N2CCOCC2)cc1C(=O)NC(=O)CCl [compound 11]

isoTOP-ABPP reactivity profile ratio, Q16763_C118 (UBE2S C118 (Q16763); in-vitro_ramos): 0.8
isoTOP-ABPP reactivity profile ratio, Q16763_C118 (UBE2S C118 (Q16763); in-vitro_ramos_231): 1.0
isoTOP-ABPP reactivity profile ratio, Q15084_C55 (PDIA6 C55 (Q15084); 500 μm, in-vitro_ramos): 1.0
isoTOP-ABPP reactivity profile ratio, Q15084_C55 (PDIA6 C55 (Q15084); 500 μm, in-vitro_ramos_231): 0.9
isoTOP-ABPP reactivity profile ratio, Q15084_C190 (PDIA6 C190 (Q15084); 500 μm, in-vitro_ramos): 1.0
isoTOP-ABPP reactivity profile ratio, Q15084_C190 (PDIA6 C190 (Q15084); 500 μm, in-vitro_ramos_231): 1.0
isoTOP-ABPP reactivity profile ratio, Q8TAQ2_C145 (SMARCC2 C145 (Q8TAQ2); 500 μm, in-vitro_ramos): 1.2
isoTOP-ABPP reactivity profile ratio, O14980_C528 (XPO1 C528 (O14980); 500 μm, in-vitro_ramos): 0.8
isoTOP-ABPP reactivity profile ratio, P09211_C48 (GSTP1 C48 (P09211); in-vitro_ramos): 1.2
isoTOP-ABPP reactivity profile ratio, P09211_C48 (GSTP1 C48 (P09211); in-vitro_ramos_231): 2.3
isoTOP-ABPP reactivity profile ratio, O14980_C34 (XPO1 C34 (O14980); in-vitro_ramos): 1.0
isoTOP-ABPP reactivity profile ratio, O14980_C34 (XPO1 C34 (O14980); in-vitro_ramos_231): 0.9
isoTOP-ABPP reactivity profile ratio, P24752_C119 (ACAT1 C119 (P24752); in-vitro_ramos): 0.7
isoTOP-ABPP reactivity profile ratio, P24752_C119 (ACAT1 C119 (P24752); in-vitro_ramos_231): 0.9
Compound: C=CC(=O)N1CCC(Cc2ccccc2)CC1 [compound 53]
